{"source": "PubChem BioAssay (NCI)", "experiment_in_all_cases": "DTP human tumour cell line panel, 48 h", "key": {"786-0 renal": {"system": "786-0 renal"}, "A498 renal": {"system": "A498 renal"}, "A549 NSCLC": {"system": "A549 NSCLC"}, "ACHN renal": {"system": "ACHN renal"}, "BT-549 breast": {"system": "BT-549 breast"}, "CAKI-1 renal": {"system": "CAKI-1 renal"}, "CCRF-CEM leukemia": {"system": "CCRF-CEM leukemia"}, "COLO 205 colon": {"system": "COLO 205 colon"}, "DU-145 prostate": {"system": "DU-145 prostate"}, "EKVX NSCLC": {"system": "EKVX NSCLC"}, "HCC-2998 colon": {"system": "HCC-2998 colon"}, "HCT-116 colon": {"system": "HCT-116 colon"}, "HCT-15 colon": {"system": "HCT-15 colon"}, "HL-60(TB) leukemia": {"system": "HL-60(TB) leukemia"}, "HOP-62 NSCLC": {"system": "HOP-62 NSCLC"}, "HOP-92 NSCLC": {"system": "HOP-92 NSCLC"}, "HS 578T breast": {"system": "HS 578T breast"}, "HT29 colon": {"system": "HT29 colon"}, "IGROV1 ovarian": {"system": "IGROV1 ovarian"}, "K-562 leukemia": {"system": "K-562 leukemia"}, "KM12 colon": {"system": "KM12 colon"}, "LOX IMVI melanoma": {"system": "LOX IMVI melanoma"}, "M14 melanoma": {"system": "M14 melanoma"}, "MALME-3M melanoma": {"system": "MALME-3M melanoma"}, "MCF7 breast": {"system": "MCF7 breast"}, "MDA-MB-231 breast": {"system": "MDA-MB-231 breast"}, "MDA-MB-435": {"system": "MDA-MB-435"}, "MDA-N": {"system": "MDA-N"}, "MOLT-4 leukemia": {"system": "MOLT-4 leukemia"}, "NCI-H226 lung": {"system": "NCI-H226 lung"}, "NCI-H23 lung": {"system": "NCI-H23 lung"}, "NCI-H460 lung": {"system": "NCI-H460 lung"}, "NCI-H522 lung": {"system": "NCI-H522 lung"}, "NCI/ADR-RES ovarian": {"system": "NCI/ADR-RES ovarian"}, "OVCAR-3 ovarian": {"system": "OVCAR-3 ovarian"}, "OVCAR-4 ovarian": {"system": "OVCAR-4 ovarian"}, "OVCAR-5 ovarian": {"system": "OVCAR-5 ovarian"}, "OVCAR-8 ovarian": {"system": "OVCAR-8 ovarian"}, "PC-3 prostate": {"system": "PC-3 prostate"}, "RPMI-8226 leukemia": {"system": "RPMI-8226 leukemia"}, "RXF 393 renal": {"system": "RXF 393 renal"}, "SF-268 CNS": {"system": "SF-268 CNS"}, "SF-295 CNS": {"system": "SF-295 CNS"}, "SF-539 CNS": {"system": "SF-539 CNS"}, "SK-MEL-2 melanoma": {"system": "SK-MEL-2 melanoma"}, "SK-MEL-28 melanoma": {"system": "SK-MEL-28 melanoma"}, "SK-MEL-5 melanoma": {"system": "SK-MEL-5 melanoma"}, "SK-OV-3 ovarian": {"system": "SK-OV-3 ovarian"}, "SN12C renal": {"system": "SN12C renal"}, "SNB-19 CNS": {"system": "SNB-19 CNS"}, "SNB-75 CNS": {"system": "SNB-75 CNS"}, "SR leukemia": {"system": "SR leukemia"}, "SW-620 colon": {"system": "SW-620 colon"}, "T-47D breast": {"system": "T-47D breast"}, "TK-10 renal": {"system": "TK-10 renal"}, "U251 CNS": {"system": "U251 CNS"}, "UACC-257 melanoma": {"system": "UACC-257 melanoma"}, "UACC-62 melanoma": {"system": "UACC-62 melanoma"}, "UO-31 renal": {"system": "UO-31 renal"}}, "note": "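These data come from cells grown in 96-well plates and exposed to compound for 48 hours at five concentrations. TGI denotes the concentration required for complete inhibition of growth.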"}
{"molecule": "CC(C)NCC(O)c1cc(OCc2ccccc2)c(OCc2ccccc2)cc1NC(=O)CCC(=O)O", "note": "(centres undefined)", "values": [{"measurement": "TGI", "setting": "786-0 renal", "result": 20.9, "unit": "µM"}, {"measurement": "TGI", "setting": "A498 renal", "result": 26, "unit": "µM"}, {"measurement": "TGI", "setting": "A549 NSCLC", "result": 24.5, "unit": "µM"}, {"measurement": "TGI", "setting": "ACHN renal", "result": 13.1, "unit": "µM"}, {"measurement": "TGI", "setting": "BT-549 breast", "result": 31.1, "unit": "µM"}, {"measurement": "TGI", "setting": "CAKI-1 renal", "result": 21.3, "unit": "µM"}, {"measurement": "TGI", "setting": "CCRF-CEM leukemia", "result": 13, "unit": "µM"}, {"measurement": "TGI", "setting": "COLO 205 colon", "result": 4.01, "unit": "µM"}, {"measurement": "TGI", "setting": "DU-145 prostate", "result": 25.8, "unit": "µM"}, {"measurement": "TGI", "setting": "EKVX NSCLC", "result": 26.9, "unit": "µM"}, {"measurement": "TGI", "setting": "HCC-2998 colon", "result": 6.47, "unit": "µM"}, {"measurement": "TGI", "setting": "HCT-116 colon", "result": 17.9, "unit": "µM"}, {"measurement": "TGI", "setting": "HCT-15 colon", "result": 12.4, "unit": "µM"}, {"measurement": "TGI", "setting": "HL-60(TB) leukemia", "result": 15.4, "unit": "µM"}, {"measurement": "TGI", "setting": "HOP-62 NSCLC", "result": 29.7, "unit": "µM"}, {"measurement": "TGI", "setting": "HOP-92 NSCLC", "result": 19, "unit": "µM"}, {"measurement": "TGI", "setting": "HS 578T breast", "result": 30.7, "unit": "µM"}, {"measurement": "TGI", "setting": "HT29 colon", "result": 12.9, "unit": "µM"}, {"measurement": "TGI", "setting": "IGROV1 ovarian", "result": 24.2, "unit": "µM"}, {"measurement": "TGI", "setting": "K-562 leukemia", "result": 4.32, "unit": "µM"}, {"measurement": "TGI", "setting": "KM12 colon", "result": 9.51, "unit": "µM"}, {"measurement": "TGI", "setting": "LOX IMVI melanoma", "result": 2.97, "unit": "µM"}, {"measurement": "TGI", "setting": "M14 melanoma", "result": 3.48, "unit": "µM"}, {"measurement": "TGI", "setting": "MALME-3M melanoma", "result": 28.6, "unit": "µM"}, {"measurement": "TGI", "setting": "MCF7 breast", "result": 19, "unit": "µM"}, {"measurement": "TGI", "setting": "MDA-MB-231 breast", "result": 20.9, "unit": "µM"}, {"measurement": "TGI", "setting": "MDA-MB-435", "result": 17.4, "unit": "µM"}, {"measurement": "TGI", "setting": "MDA-N", "result": 5.97, "unit": "µM"}, {"measurement": "TGI", "setting": "MOLT-4 leukemia", "result": 14.8, "unit": "µM"}, {"measurement": "TGI", "setting": "NCI-H226 lung", "result": 33.2, "unit": "µM"}, {"measurement": "TGI", "setting": "NCI-H23 lung", "result": 26.5, "unit": "µM"}, {"measurement": "TGI", "setting": "NCI-H460 lung", "result": 3.71, "unit": "µM"}, {"measurement": "TGI", "setting": "NCI-H522 lung", "result": 11.7, "unit": "µM"}, {"measurement": "TGI", "setting": "NCI/ADR-RES ovarian", "result": 28.7, "unit": "µM"}, {"measurement": "TGI", "setting": "OVCAR-3 ovarian", "result": 28.2, "unit": "µM"}, {"measurement": "TGI", "setting": "OVCAR-4 ovarian", "result": 24.8, "unit": "µM"}, {"measurement": "TGI", "setting": "OVCAR-5 ovarian", "result": 30.6, "unit": "µM"}, {"measurement": "TGI", "setting": "OVCAR-8 ovarian", "result": 21.5, "unit": "µM"}, {"measurement": "TGI", "setting": "PC-3 prostate", "result": 21.3, "unit": "µM"}, {"measurement": "TGI", "setting": "RPMI-8226 leukemia", "result": 8.65, "unit": "µM"}, {"measurement": "TGI", "setting": "RXF 393 renal", "result": 18.6, "unit": "µM"}, {"measurement": "TGI", "setting": "SF-268 CNS", "result": 22.7, "unit": "µM"}, {"measurement": "TGI", "setting": "SF-295 CNS", "result": 15.7, "unit": "µM"}, {"measurement": "TGI", "setting": "SF-539 CNS", "result": 30.9, "unit": "µM"}, {"measurement": "TGI", "setting": "SK-MEL-2 melanoma", "result": 3.32, "unit": "µM"}, {"measurement": "TGI", "setting": "SK-MEL-28 melanoma", "result": 9.37, "unit": "µM"}, {"measurement": "TGI", "setting": "SK-MEL-5 melanoma", "result": 4.97, "unit": "µM"}, {"measurement": "TGI", "setting": "SK-OV-3 ovarian", "result": 29.2, "unit": "µM"}, {"measurement": "TGI", "setting": "SN12C renal", "result": 24.3, "unit": "µM"}, {"measurement": "TGI", "setting": "SNB-19 CNS", "result": 28.3, "unit": "µM"}, {"measurement": "TGI", "setting": "SNB-75 CNS", "result": 23.9, "unit": "µM"}, {"measurement": "TGI", "setting": "SR leukemia", "result": 9.01, "unit": "µM"}, {"measurement": "TGI", "setting": "SW-620 colon", "result": 7.51, "unit": "µM"}, {"measurement": "TGI", "setting": "T-47D breast", "result": 25.7, "unit": "µM"}, {"measurement": "TGI", "setting": "TK-10 renal", "result": 22.5, "unit": "µM"}, {"measurement": "TGI", "setting": "U251 CNS", "result": 18.2, "unit": "µM"}, {"measurement": "TGI", "setting": "UACC-257 melanoma", "result": 26.4, "unit": "µM"}, {"measurement": "TGI", "setting": "UACC-62 melanoma", "result": 8.69, "unit": "µM"}, {"measurement": "TGI", "setting": "UO-31 renal", "result": 15, "unit": "µM"}]}
